From ChEMBL document CHEMBL5728724, “6-aryl-7-substituted-3-(1H-pyrazol-5-yl)-7H-[1,2,4]triazolo[3,4-b][1,3,4]thiadiazines as inhibitors of the STAT3 pathway with anti-proliferative activity” (2021)

Target: T1, Signal transducer and activator of transcription 1-alpha/beta (Homo sapiens, UniProt P42224)
T1 sequence (P42224 whole entry): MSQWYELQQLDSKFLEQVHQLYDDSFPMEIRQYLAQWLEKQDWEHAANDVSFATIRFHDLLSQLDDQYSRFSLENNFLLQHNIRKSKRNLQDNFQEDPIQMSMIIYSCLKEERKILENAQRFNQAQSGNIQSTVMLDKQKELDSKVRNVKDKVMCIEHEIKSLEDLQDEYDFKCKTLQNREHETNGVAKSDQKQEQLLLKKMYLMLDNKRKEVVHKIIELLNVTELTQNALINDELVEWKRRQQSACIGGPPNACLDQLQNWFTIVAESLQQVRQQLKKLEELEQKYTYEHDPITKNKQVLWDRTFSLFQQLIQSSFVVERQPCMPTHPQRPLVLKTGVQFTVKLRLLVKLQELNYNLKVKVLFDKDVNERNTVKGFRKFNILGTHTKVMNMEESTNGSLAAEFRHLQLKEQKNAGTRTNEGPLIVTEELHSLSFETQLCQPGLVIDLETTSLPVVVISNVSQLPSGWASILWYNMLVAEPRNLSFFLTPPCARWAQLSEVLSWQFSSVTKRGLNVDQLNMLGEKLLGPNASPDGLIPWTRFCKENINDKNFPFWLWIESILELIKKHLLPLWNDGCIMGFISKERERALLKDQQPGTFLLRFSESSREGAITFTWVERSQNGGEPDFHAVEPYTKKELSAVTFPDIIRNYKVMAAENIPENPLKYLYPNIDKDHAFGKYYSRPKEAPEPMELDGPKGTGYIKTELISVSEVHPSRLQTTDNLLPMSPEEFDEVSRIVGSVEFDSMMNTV
Experiment: Bioassay: Compound samples (in 3-5 mg quantities) were evaluated in a variety of assays. All compound submissions were fully characterized (1H, 13C, IR, FIRMS), satisfied purity criteria (≥95% LC/MC, ELS).

SMILES	IC50 [µM]
Clc1ccc(C2=Nn3c(nnc3-c3cc(-c4ccccc4)n[nH]3)SC2)s1	> 50
Clc1ccc(C2=Nn3c(nnc3-c3cc(-c4ccccc4)n[nH]3)SC2)cc1Cl	> 50
c1ccc(-c2cc(-c3nnc4n3N=C(c3ccncc3)CS4)[nH]n2)cc1	> 50
C1=Nn2c(nnc2-c2cc(-c3ccccc3)n[nH]2)SC1	> 50
c1ccc(-c2cc(-c3nnc4n3N=C(C3CCCCC3)CS4)[nH]n2)cc1	> 50
C1=Nn2c(nnc2-c2[nH]nc3c2CCC3)SC1	> 50
c1ccc(C2=Nn3c(nnc3-c3cc(-c4ccccc4)[nH]n3)SC2)cc1	> 50
C1CCC(C2=Nn3c(nnc3-c3[nH]nc4c3CCC4)SC2)CC1	> 50
c1cc(C2=Nn3c(nnc3-c3[nH]nc4c3CCC4)SC2)ccn1	> 50

Next, values leading:

IC50 [µM]	SMILES
> 50	Clc1ccc(C2=Nn3c(nnc3-c3[nH]nc4c3CCC4)SC2)s1
> 50	COc1ccc(C2=Nn3c(nnc3-c3[nH]nc4c3CCC4)SC2C)cc1 (centres undefined)
> 50	Clc1ccc(C2=Nn3c(nnc3-c3[nH]nc4c3CCC4)SC2)cc1
> 50	CC1=Nn2c(nnc2-c2[nH]nc3c2CCC3)SC1
> 50	CC(C)C1Sc2nnc(-c3[nH]nc4c3CCC4)n2N=C1c1ccc(Cl)c(Cl)c1 (centres undefined)
> 50	c1ccc(C2=Nn3c(nnc3-c3[nH]nc4c3CCC4)SC2)cc1
> 50	COc1ccc(C2=Nn3c(nnc3-c3[nH]nc4c3CCC4)SC2C(C)C)cc1 (centres undefined)
> 50	CC1=Nn2c(nnc2-c2cc(-c3ccccc3)[nH]n2)SC1
> 30	COc1ccc(C2=Nn3c(nnc3-c3cc(-c4ccc(F)cc4)n[nH]3)SC2C)cc1 (centres undefined)
> 30	CC1Sc2nnc(-c3cc(-c4ccc(F)cc4)n[nH]3)n2N=C1c1ccccc1 (centres undefined)
